# In US8940865B2, “Myocardial peptide, preparation method and uses thereof” (Dalian Zhen-Ao Pharmaceutical Co, Ltd., priority 2008, dated 2015):
# Where “and” joins values, the source holds several entries; their conditions need not be identical. Identical values can stand only once.
# Tests used:
# [1] = system: primary culture myocardium cell damaged by hypoxia/reoxygenation; assay: Anti-hypoxia/reoxygenation injury effect on primary culture myocardium cell (MTT); format: cell-based, Neonatal SD rat
# Description: Take ventricle from Neonatal SD rat, wash with D-Hank's and cut to small pieces, digest with collagenase II to obtain the myocardium cell and fibroblast, which are cultivated with high glucose DMEM (dmem-h-15) culture medium containing 15% fetal bovine serum. Remove the fibroblast through differential adhesion and chemistry method, and inoculate myocardium cell on the 96-well plates.
# 2.1.3 Anti-Hypoxia/Reoxygenation Injury Effect of CMPC to Primary Culture Myocardium Cell.
# Cell cultivation method is the same as that in 2.1.1
# Preparation of model: Preparing the model by using the myocardium cell cultured for 48˜72 h, dividing the cell on the culture plate to following groups: Control Group, Model Group, Verapamil Group (2, 0.4, 0.08 mg/l final concentration) and CMPM Group (final concentration of 50, 10, 2, 0.4, 0.08, 0.016, 0.0032 mg/l), 3 wells for every group. Except the Control Group, the other groups are prepared by following method: placing the monolayer myocardium cell on center of culture plate on low glucose medium (containing Verapamil or CMPM with corresponding concentration), then placing the culture plate into the vacuum drying machine, filling nitrogen, and hermetically culturing, causing myocardial injury after oxygen lack for 15 hours, then being cultured for 1 hour by high glucose DMEM medium (95% atmosphere and 5% CO2) to cause reoxygention injury. Measuring the absorbance value at 540 nm by using MTT method, and the same as above, calculating the protective rate to figure out EC50.
# [2] = system: vitro cultured myocardium poisoned by adriamycin; assay: Activity detection experiment of cultivation of myocardium cell (MTT); format: cell-based; conditions: mitochondria dehydrogenase activity of adriamycin-damaged myocardium, listed as peptide
# Description: “Activity detection experiment of cultivation of myocardium cell” provided by DaLian Zhen-Ao Pharmaceutical CO., LTD is adopted in the activity detection. The experiment is based on test of vitro cultured myocardium poisoned by adriamycin, wherein, […] (MTT) is used as reaction indicator to observe the enhancement of the activity of mitochondria dehydrogenase of the damaged myocardium conducted by cardio myopeptidin, to determine the protective effect of myocardium.
# [3] = system: primary culture myocardium cell damaged by adriamycin; assay: Effect of CMPC against adriamycin injury of primary culture myocardium cell (MTT); format: cell-based, Neonatal SD rat
# Procedure: Remove the fibroblast through differential adhesion and chemistry method, and inoculate myocardium cell on the 96-well plates.
# 2.1.2 The Against Function of Cmpc to Injury of Adriamycin to Primary Culture Myocardium Cell.
# Cell culture method is the same as 2.1.1
# Preparation of model: Blank Control Group: cultivating myocardium cell with DMEM-H-15;
# Model Group: adding 1 mg/L adriamycin, washing the plate with DMEM-H-15 two times after being cultivated for 1 h, adding DMEM-H-15 for cultivation;
# Protective rate=(Ax−Amodel)/(Acontrol−Amodel)×100%;
# (Ax, Amode, Acontrol respectively represent Absorbance value of Drug administration groups, Model Group and Blank control group.
sequence,measurement,setting,value
"KGAWSNVLRGMGGAF [CMPC, Lys-Gly-Ala-Trp-Ser-Asn-Val-Leu-Arg-Gly-Met-Gly-Gly-Ala-Phe]",% (protective rate),"[1]; Plate 1, Dosage 0.0032 mg/L",4.11%
same,A540,"[1]; Plate 1, Dosage 0.0032 mg/L",0.496 ± 0.031
same,% (protective rate),"[1]; Plate 1, Dosage 0.016 mg/L",14.69%
same,A540,"[1]; Plate 1, Dosage 0.016 mg/L",0.526 ± 0.032
same,% (protective rate),"[1]; Plate 1, Dosage 0.08 mg/L",26.09%
same,A540,"[1]; Plate 1, Dosage 0.08 mg/L",0.558 ± 0.025
same,% (protective rate),"[1]; Plate 1, Dosage 0.4 mg/L",38.95%
same,A540,"[1]; Plate 1, Dosage 0.4 mg/L",0.594 ± 0.043
same,% (protective rate),"[1]; Plate 1, Dosage 2 mg/L",28.91%
same,A540,"[1]; Plate 1, Dosage 2 mg/L",0.566 ± 0.057
same,% (protective rate),"[1]; Plate 1, Dosage 10 mg/L",17.74%
same,A540,"[1]; Plate 1, Dosage 10 mg/L",0.534 ± 0.033
same,% (protective rate),"[1]; Plate 1, Dosage 50 mg/L",9.05%
same,A540,"[1]; Plate 1, Dosage 50 mg/L",0.510 ± 0.030
same,% (protective rate),"[1]; Plate 2, Dosage 0.0032 mg/L",20.37%
same,A540,"[1]; Plate 2, Dosage 0.0032 mg/L",0.543 ± 0.052
same,% (protective rate),"[1]; Plate 2, Dosage 0.016 mg/L",22.85%
same,A540,"[1]; Plate 2, Dosage 0.016 mg/L",0.550 ± 0.024
same,% (protective rate),"[1]; Plate 2, Dosage 0.08 mg/L",48.52%
same,A540,"[1]; Plate 2, Dosage 0.08 mg/L",0.622 ± 0.047
same,% (protective rate),"[1]; Plate 2, Dosage 0.4 mg/L",40.20%
same,A540,"[1]; Plate 2, Dosage 0.4 mg/L",0.599 ± 0.032
same,% (protective rate),"[1]; Plate 2, Dosage 2 mg/L",30.99%
same,A540,"[1]; Plate 2, Dosage 2 mg/L",0.573 ± 0.052
same,% (protective rate),"[1]; Plate 2, Dosage 10 mg/L",19.36%
same,A540,"[1]; Plate 2, Dosage 10 mg/L",0.540 ± 0.026
same,% (protective rate),"[1]; Plate 2, Dosage 50 mg/L",18.12%
same,A540,"[1]; Plate 2, Dosage 50 mg/L",0.536 ± 0.036
same,% (protective rate),"[1]; Plate 3, Dosage 0.0032 mg/L",15.86%
same,A540,"[1]; Plate 3, Dosage 0.0032 mg/L",0.763 ± 0.018
same,% (protective rate),"[1]; Plate 3, Dosage 0.016 mg/L",24.20%
same,A540,"[1]; Plate 3, Dosage 0.016 mg/L",0.777 ± 0.014
same,% (protective rate),"[1]; Plate 3, Dosage 0.08 mg/L",38.05%
same,A540,"[1]; Plate 3, Dosage 0.08 mg/L",0.800 ± 0.020
same,% (protective rate),"[1]; Plate 3, Dosage 0.4 mg/L",47.29%
same,A540,"[1]; Plate 3, Dosage 0.4 mg/L",0.815 ± 0.014
same,% (protective rate),"[1]; Plate 3, Dosage 2 mg/L",64.26%
same,A540,"[1]; Plate 3, Dosage 2 mg/L",0.843 ± 0.032
same,% (protective rate),"[1]; Plate 3, Dosage 10 mg/L",34.43%
same,A540,"[1]; Plate 3, Dosage 10 mg/L",0.790 ± 0.023
same,% (protective rate),"[1]; Plate 3, Dosage 50 mg/L",14.96%
same,A540,"[1]; Plate 3, Dosage 50 mg/L",0.761 ± 0.019
same,Activity value,[2],2.3570 and 2.7328 and 2.564
same,% (protective rate),"[3]; Plate 1, Dosage 0.0032 mg/L",2.01%
same,A540,"[3]; Plate 1, Dosage 0.0032 mg/L",0.662 ± 0.036
same,% (protective rate),"[3]; Plate 1, Dosage 0.016 mg/L",33.08%
same,A540,"[3]; Plate 1, Dosage 0.016 mg/L",0.695 ± 0.039
same,% (protective rate),"[3]; Plate 1, Dosage 0.08 mg/L",40.49%
same,A540,"[3]; Plate 1, Dosage 0.08 mg/L",0.703 ± 0.012
same,% (protective rate),"[3]; Plate 1, Dosage 0.4 mg/L",58.27%
same,A540,"[3]; Plate 1, Dosage 0.4 mg/L",0.723 ± 0.018
same,% (protective rate),"[3]; Plate 1, Dosage 2 mg/L",27.98%
same,A540,"[3]; Plate 1, Dosage 2 mg/L",0.690 ± 0.025
same,% (protective rate),"[3]; Plate 1, Dosage 10 mg/L",4.79%
same,A540,"[3]; Plate 1, Dosage 10 mg/L",0.665 ± 0.032
same,% (protective rate),"[3]; Plate 1, Dosage 50 mg/L",2.47%
same,A540,"[3]; Plate 1, Dosage 50 mg/L",0.662 ± 0.031
same,% (protective rate),"[3]; Plate 2, Dosage 0.0032 mg/L",36.17%
same,A540,"[3]; Plate 2, Dosage 0.0032 mg/L",0.755 ± 0.033
same,% (protective rate),"[3]; Plate 2, Dosage 0.016 mg/L",35.55%
same,A540,"[3]; Plate 2, Dosage 0.016 mg/L",0.755 ± 0.024
same,% (protective rate),"[3]; Plate 2, Dosage 0.08 mg/L",49.30%
same,A540,"[3]; Plate 2, Dosage 0.08 mg/L",0.769 ± 0.055
same,% (protective rate),"[3]; Plate 2, Dosage 0.4 mg/L",56.11%
same,A540,"[3]; Plate 2, Dosage 0.4 mg/L",0.777 ± 0.057
same,% (protective rate),"[3]; Plate 2, Dosage 2 mg/L",33.85%
same,A540,"[3]; Plate 2, Dosage 2 mg/L",0.753 ± 0.065
same,% (protective rate),"[3]; Plate 2, Dosage 10 mg/L",33.54%
same,A540,"[3]; Plate 2, Dosage 10 mg/L",0.752 ± 0.039
same,% (protective rate),"[3]; Plate 2, Dosage 50 mg/L",33.08%
same,A540,"[3]; Plate 2, Dosage 50 mg/L",0.752 ± 0.036
same,% (protective rate),"[3]; Plate 3, Dosage 0.016 mg/L",55.92%
same,A540,"[3]; Plate 3, Dosage 0.016 mg/L",0.810 ± 0.020
same,% (protective rate),"[3]; Plate 3, Dosage 0.08 mg/L",60.35%
same,A540,"[3]; Plate 3, Dosage 0.08 mg/L",0.819 ± 0.016
same,% (protective rate),"[3]; Plate 3, Dosage 0.4 mg/L",42.34%
same,A540,"[3]; Plate 3, Dosage 0.4 mg/L",0.781 ± 0.050
same,% (protective rate),"[3]; Plate 3, Dosage 2 mg/L",39.42%
same,A540,"[3]; Plate 3, Dosage 2 mg/L",0.775 ± 0.008
same,% (protective rate),"[3]; Plate 3, Dosage 10 mg/L",36.41%
same,A540,"[3]; Plate 3, Dosage 10 mg/L",0.768 ± 0.057
same,% (protective rate),"[3]; Plate 3, Dosage 50 mg/L",30.49%
same,A540,"[3]; Plate 3, Dosage 50 mg/L",0.756 ± 0.014
